Assay results as given in publication PMC7766161, “PARP Theranostic Auger Emitters Are Cytotoxic in BRCA Mutant Ovarian Cancer and Viable Tumors from Ovarian Cancer Patients Enable Ex-Vivo Screening of Tumor Response” (Molecules, 2020).
pKd: −log10 of the molar value.

Biological target: T1, PARP-1 (Homo sapiens, UniProt P09874)
T1 construct: gene PARP1
Assay: saturation radioligand binding in OVCAR8 wt cells (nonspecific binding with […] veliparib)
Type: cell-based

T1 sequence (P09874 2-1014): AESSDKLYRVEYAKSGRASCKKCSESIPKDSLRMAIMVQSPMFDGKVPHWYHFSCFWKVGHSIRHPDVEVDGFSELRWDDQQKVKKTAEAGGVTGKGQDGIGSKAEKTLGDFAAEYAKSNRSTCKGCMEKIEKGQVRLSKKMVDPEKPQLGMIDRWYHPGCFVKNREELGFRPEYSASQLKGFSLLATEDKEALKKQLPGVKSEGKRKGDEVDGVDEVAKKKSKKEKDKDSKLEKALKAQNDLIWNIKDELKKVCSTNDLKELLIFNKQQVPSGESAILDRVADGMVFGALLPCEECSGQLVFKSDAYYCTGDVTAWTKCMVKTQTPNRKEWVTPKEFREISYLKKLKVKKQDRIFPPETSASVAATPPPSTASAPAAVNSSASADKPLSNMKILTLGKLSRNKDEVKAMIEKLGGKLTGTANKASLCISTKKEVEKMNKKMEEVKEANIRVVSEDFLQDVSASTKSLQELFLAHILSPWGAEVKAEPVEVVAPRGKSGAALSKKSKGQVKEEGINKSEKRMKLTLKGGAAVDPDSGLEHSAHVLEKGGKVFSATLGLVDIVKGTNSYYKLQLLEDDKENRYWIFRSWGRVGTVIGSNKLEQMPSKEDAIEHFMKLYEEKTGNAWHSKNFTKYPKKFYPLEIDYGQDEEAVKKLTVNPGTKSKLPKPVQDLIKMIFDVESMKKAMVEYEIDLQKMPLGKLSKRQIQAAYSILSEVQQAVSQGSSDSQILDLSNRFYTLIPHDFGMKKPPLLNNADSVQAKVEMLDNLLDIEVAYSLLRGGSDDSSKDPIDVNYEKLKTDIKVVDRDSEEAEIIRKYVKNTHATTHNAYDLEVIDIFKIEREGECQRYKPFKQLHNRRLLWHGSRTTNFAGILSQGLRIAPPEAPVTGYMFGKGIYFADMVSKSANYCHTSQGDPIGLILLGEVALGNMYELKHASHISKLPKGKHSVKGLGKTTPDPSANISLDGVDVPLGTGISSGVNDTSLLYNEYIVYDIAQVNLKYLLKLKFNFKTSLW

For [125I]KX1, the pKd was 8.11.
